Like-named read-outs stand apart in the source and are kept apart here.
Experiments:
TACE(ADAM17) = TACE(ADAM17) (Homo sapiens, UniProt P78536); assay: Inhibition of recombinant human protease TACE, fluorescence assay; type: biochemical
Experimental: (§1) The purpose is to determine the inhibitory activity of the compounds of the present disclosure on recombinant human proteases Trypsin, MMP9, and TACE.
(§2) • Trypsin: 100 mM Tris-HCl, 75 mM NaCl, 2.5 mM CaCl2, 10 mM Cysteine, pH 7.5 • MMP9: 50 mM Tris, 10 mM CaCl2), 150 mM NaCl, 0.05% Brij-35 (w/v), pH7.5 • TACE: 25 mM Tris, 2.5 μM ZnCl2, 0.005% Brij-35 (w/v), pH 9.0 […]
(§3) The inhibitory effect of the compounds of the present disclosure on the above three proteases was determined by the above test, and the measured IC50 values were as follows.

MMP9 = MMP9 (Homo sapiens, UniProt P14780); assay: Inhibition of recombinant human protease MMP9, fluorescence assay; type: biochemical
Experimental: as §1, §2, §3

[1] = tested on: postoperative intra-abdominal adhesions; conditions: for extent (and locations) of intra-abdominal adhesions compared with the model group: rats, single gavage 12 mL/kg 2 hours before operation, 7 days after operation
Experimental: Seventy male SPF SD rats, 220±20 g each, were purchased from Beijing Vital River Experimental Animal Technology Co., Ltd. After 2 weeks of adaptive feeding in the laboratory, the animals were numbered by ear tags and randomized into 7 groups, with […] in each group.
The positive drug was tranexamic acid (TXA).
An amount of the positive drug tranexamic acid (TXA) was weighed and added with the electrolyte solution to prepare 64 mM and 21 mM solutions.
The animals were given a single dose at 12 mL/kg by oral gavage 2 hours before the laparotomy operation. The animals in the sham operation group and the model group were given the solvents.
The animals were fasted but water was given before the operation (>12 hours). The abdomen was locally depilated after inhalation anesthesia and disinfected with iodophor solution. An incision with the size of 3 cm was made in the midline area of the abdomen of the experimental animal using a scalpel, and the cecum was taken out. The serosal layer on each side of the ileocecal region was repeatedly rubbed with sterile gauze until there were needle-like bleeding points on the surface, forming a damaged wound inside and outside of the cecum. The cecum was returned back to the abdominal cavity. The abdominal cavity was closed, sutured layer by layer with surgical sutures, and disinfected. The entire operation should be performed aseptically. The experimental operations were carried out for 4 animals in each group. In the sham operation group, the animal's abdomens were opened only without damaging the cecum.
The animals were dissected and observed 7 days after the operation.
The intestinal adhesions were scored using the Phillips grading method.

[2] = tested on: total proteases in the homogenate of the jejunal segment of the small intestine of rats; assay: Inhibition of total proteases in rat small intestine (jejunum) homogenate, fluorescent protease activity kit; type: biochemical; conditions: ΔRFU within 30 minutes
Source text: The purpose is to determine the inhibitory activity of the compounds of the present disclosure on total proteases in the homogenate of the jejunal segment of the small intestine of rats.
• a) Preparation of rat intestinal homogenate and protein quantification • i. Tissue sampling: The experimental animals were anesthetized and bled to death. The small intestine was folded in half from the ileocecal junction to the duodenum at the lower end of the stomach, and the jejunum in the middle with a size of about 4 cm was taken; after washing with a 0.9% sodium chloride solution, it was quickly frozen in liquid nitrogen and then transferred to −80° C. for storage; • ii. […] The total protein of the homogenate was quantified using the BCA protein concentration assay kit according to the instructions. • b) Inhibitory activity test of compound • i. […]
• v. […] The fluorescence signals at FI=Ex 485/Em 520 nm were detected continuously within 30 minutes (once every 5 minutes) using a kinetic mode. • c) Data analysis
The difference between fluorescence signals within 30 minutes was calculated and recorded as ΔRFU. […]
The inhibitory effect of the compounds of the present disclosure on the total proteases in the rat small intestine homogenate was determined by the above test, and the measured IC50 values were as follows.

[3] = tested on: postoperative intestinal adhesions; assay: Abdominal adhesion model by the file method (cecal friction), Phillips grading; type: in vivo, SD rats; conditions: rats; gavage 2% solution 12 mL/kg 2 hours before operation + peritoneal irrigation 1% solution 2 mL/animal; 7th day after operation
Source text: • 3.1 Experimental animals: The male SPF SD rats (220 g each) were purchased from the Experimental Animal Center of Hangzhou Medical College and passed the inspection of Zhejiang Provincial Experimental Animal Quality Supervision and Inspection Station. […] The solvent used for intragastric administration was compound polyethylene glycol electrolyte solution; the solvent used for irrigation administration was sterile saline solution. • 3.3 Preparation of solvent: One bag of compound polyethylene glycol electrolyte solution (68.56 g) was dissolved in 1 L of pure water, and is further added with 44 g of glucose (containing water) to make the glucose content of 4% (w/v) in the solvent. The prepared solvent was stored at 2-8° C. and used within one week. • 3.4 Preparation of intragastric solution: An amount of test sample was weighed and added with an appropriate amount of sterile ultrapure water to prepare a 20% (w/v) stock solution, then an equivalent amount of NaOH was added to adjust the pH to neutral until completely dissolved (the pH value was measured). […]

Chain of TACE(ADAM17) (P78536 215-824): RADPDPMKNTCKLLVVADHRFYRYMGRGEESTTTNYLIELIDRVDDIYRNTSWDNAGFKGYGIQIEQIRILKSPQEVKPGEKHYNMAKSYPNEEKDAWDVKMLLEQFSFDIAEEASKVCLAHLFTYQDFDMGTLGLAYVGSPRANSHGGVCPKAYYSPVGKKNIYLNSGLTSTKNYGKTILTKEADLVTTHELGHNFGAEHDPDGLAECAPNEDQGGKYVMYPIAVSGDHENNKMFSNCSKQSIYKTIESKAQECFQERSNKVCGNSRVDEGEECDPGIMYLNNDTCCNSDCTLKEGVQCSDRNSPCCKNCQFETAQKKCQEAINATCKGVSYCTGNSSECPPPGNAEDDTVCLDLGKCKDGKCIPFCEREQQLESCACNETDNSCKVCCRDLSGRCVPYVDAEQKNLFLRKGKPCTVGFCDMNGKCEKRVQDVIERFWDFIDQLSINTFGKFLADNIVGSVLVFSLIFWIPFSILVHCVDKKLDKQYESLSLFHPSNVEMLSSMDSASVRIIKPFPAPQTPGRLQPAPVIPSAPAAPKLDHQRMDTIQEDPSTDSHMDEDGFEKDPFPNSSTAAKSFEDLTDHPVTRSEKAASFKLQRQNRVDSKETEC
Chain of MMP9 (P14780 94-707): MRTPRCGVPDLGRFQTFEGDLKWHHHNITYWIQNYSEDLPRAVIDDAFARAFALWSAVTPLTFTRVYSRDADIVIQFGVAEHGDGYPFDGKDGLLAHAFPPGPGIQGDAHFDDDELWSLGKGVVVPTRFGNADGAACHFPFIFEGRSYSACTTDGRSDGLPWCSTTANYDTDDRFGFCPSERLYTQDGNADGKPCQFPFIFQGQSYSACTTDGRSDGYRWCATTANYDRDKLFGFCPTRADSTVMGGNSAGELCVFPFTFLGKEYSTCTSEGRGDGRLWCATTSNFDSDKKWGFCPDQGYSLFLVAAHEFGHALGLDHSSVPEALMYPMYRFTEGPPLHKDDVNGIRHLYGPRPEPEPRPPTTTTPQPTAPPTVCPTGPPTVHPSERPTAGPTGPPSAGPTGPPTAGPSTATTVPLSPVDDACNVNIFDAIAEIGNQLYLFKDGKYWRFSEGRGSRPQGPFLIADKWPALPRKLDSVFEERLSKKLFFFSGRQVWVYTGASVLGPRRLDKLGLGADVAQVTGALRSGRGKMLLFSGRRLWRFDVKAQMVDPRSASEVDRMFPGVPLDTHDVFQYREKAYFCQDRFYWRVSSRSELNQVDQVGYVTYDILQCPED

Structure (SMILES)	IC50 (TACE(ADAM17); recombinant human TACE 0.2 μg/mL, substrate 20 μM, room temperature 30 minutes, read-out: IC50 TACE(ADAM17)) [mM]	IC50 (MMP9; recombinant human MMP9 0.2 μg/mL, substrate 10 μM, room temperature 30 minutes, read-out: IC50 MMP9) [mM]	extent (and locations) of intra-abdominal adhesions compared with the model group ([1]; 21 mM solution)	extent (and locations) of intra-abdominal adhesions compared with the model group ([1]; 64 mM solution)	IC50 [2] [mM]	IC50 (TACE(ADAM17)) [mM]	animals with quantity and extent of intestinal adhesions significantly improved compared with the model group [3]	IC50 (MMP9) [mM]	animal deaths after the operation ([1]; rat, in vivo)
Cl.O=C(O)c1ccc2c(n1)CCNC2 [Preparative example 1, 5,6,7,8-tetrahydro-1,6-naphthyridine-2-carboxylic acid hydrochloride]	5.43	6.56	reduced	reduced significantly	13.4	–	–	–	–
Cl.O=P(O)(O)c1ccc2c(n1)CCNC2 [Preparative example 2, (5,6,7,8-tetrahydro-1,6-naphthyridin-2-yl) phosphonic acid hydrochloride]	–	–	–	improved to a certain extent	17.9	7.38	more than 80%	~25	–
NC[C@H]1CC[C@H](C(=O)O)CC1 [tranexamic acid, reference compound]	–	–	exhibited an alleviating trend	significantly alleviated	–	–	–	–	one animal died

— patent publication US20260151410A1, “Tetrahydronaphthyridine Derivatives, Medicine Prepared Therefrom, and Applications Thereof in Preventing and Treating Adhesion-related Diseases” (SCINNOHUB PHARMACEUTICAL CO., LTD, priority 2022, published 2026)
